A short description of this series: Hygroscopic property (preservation stability) at 23° C., ambient pressure, humidity 70%. It is filed as physicochemical. As to conditions: humidity of 70%. From the text:
Hereinafter, the preservation stability (hygroscopic property) of the crystal of oxidized glutathione according to the present invention will be described in detail with reference to Test Example.

Regarding “oxidized glutathione [Reference Example 1]”, the “Hygroscopic property (moisture absorption / change in water content)” value was “markedly absorbed moisture” and the Time until deliquesced worked out at 2 days.
